In PubChem BioAssay (NCI):
Where “and” joins values, the source holds several entries; their conditions need not be identical. Identical values can stand only once.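 Step 1: Grow cells in 96-well plates. Step 2: Expose to compound for 48 hours at 5 concentrations. Step 3: Interpolate endpoints linearly; if unreached, use highest concentration. The concentration for 50% growth inhibition is given as GI50. TGI is the concentration that stops growth completely.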

Experiments:
Assay in all cases: NCI-60 cell line screen, 48 h
[1] = system: OVCAR-8 ovarian
[2] = system: SK-MEL-5 melanoma
[3] = system: SNB-75 CNS
[4] = system: SK-OV-3 ovarian
[5] = system: HL-60(TB) leukemia
[6] = system: UACC-62 melanoma
[7] = system: SNB-19 CNS
[8] = system: HOP-92 NSCLC
[9] = system: A498 renal
[10] = system: SF-268 CNS
[11] = system: EKVX NSCLC
[12] = system: M14 melanoma
[13] = system: NCI-H522 lung
[14] = system: MOLT-4 leukemia
[15] = system: MDA-MB-435
[16] = system: NCI/ADR-RES ovarian
[17] = system: BT-549 breast

| Structure (SMILES) | TGI [1] [µM] | TGI [2] [µM] | TGI [3] [µM] | TGI [4] [µM] | TGI [5] [µM] | TGI [6] [µM] | TGI [7] [µM] | TGI [8] [µM] | TGI [9] [µM] | TGI [10] [µM] | TGI [11] [µM] | TGI [12] [µM] | TGI [13] [µM] | TGI [14] [µM] | GI50 [3] [µM] | GI50 [6] | TGI [15] [µM] | TGI [16] [µM] | TGI [17] [µM] | GI50 [10] [µM] |
| --- | --- | --- | --- | --- | --- | --- | --- | --- | --- | --- | --- | --- | --- | --- | --- | --- | --- | --- | --- | --- |
| COc1ccc(/C(Cl)=C(\C=N/O)c2ccc(OC)c(OC)c2)cc1OC | > 100 | > 100 | > 100 | > 100 | > 100 | > 100 | > 100 | > 100 | > 100 | > 100 | > 100 | > 100 | > 100 | > 100 | – | – | – | – | – | – |
| CC(=O)OCC1OC(n2c(-c3ccccc3)c(C(C)=O)c(-c3cccc4ccccc34)c(C#N)c2=S)C(OC(C)=O)C(OC(C)=O)C1OC(C)=O (centres undefined) | > 100 | > 100 | > 100 | > 100 | > 100 | > 100 | > 100 | – | > 100 | > 100 | > 100 | > 100 | > 100 | > 100 | 0.022 | 80.4 µM and 26.7 µM | > 100 | > 100 | – | – |
| COc1ccc(N2C(=O)C3c4[nH]c5ccc(Br)cc5c4C4CCC(C(C)(C)C)CC4C3C2=O)cc1 (centres undefined) | > 100 | > 100 | – | > 100 | > 100 | > 100 | > 100 | – | > 100 | > 100 | > 100 | > 100 | > 100 | > 100 | – | – | > 100 | > 100 | > 100 | – |
| O=C(CN1CCOCC1)c1ccc2c(c1)oc(=O)n2CCN1CCOCC1 | > 100 | > 100 | > 100 | > 100 | > 100 | – | > 100 | – | > 100 | > 100 | > 100 | > 100 | – | > 100 | – | – | > 100 | > 100 | – | – |
| Cc1cc(/C=C/c2cc[n+](C)c3ccccc23)c(O)c2ncccc12 | 16.1 | 4.98 | 24 | 13 | > 26.9 | 9.19 | 20.8 | 17 | 15.5 | 11 | 20 | 4.51 | 11.6 | 7.47 | – | – | – | – | – | – |
| Cc1ccc(S(=O)(=O)Oc2nc3ccccc3nc2OS(=O)(=O)c2ccc(C)cc2)cc1 | > 100 | 56.1 | > 100 | > 100 | > 100 | > 100 | > 100 | – | > 100 | > 100 | > 100 | > 100 | 49.9 | > 100 | – | – | > 100 | > 100 | > 100 | – |
| Cc1ccc(/C(O)=C/C(=O)C(=O)NC23CC4CC(CC(C4)C2)C3)cc1 | > 10 | > 10 | > 10 | > 10 | > 10 | > 10 | – | > 10 | – | > 10 | > 10 | > 10 | – | > 10 | – | – | > 10 | – | – | – |
| COC1CC(COCc2ccccc2)CC(OC)O1 (centres undefined) | > 100 | > 100 | > 100 | > 100 | 1.84 | > 100 | – | > 100 | > 100 | > 100 | > 100 | > 100 | > 100 | > 100 | – | – | > 100 | > 100 | – | – |
| CCOC(=O)C1=NN(c2ccc([N+](=O)[O-])cc2)[C@@]2(C)C[C@]3(c4ccccc4)N(c4ccc([N+](=O)[O-])cc4)N=C(C(=O)OCC)N3c3ccccc3N12 | > 100 | > 100 | > 100 | > 100 | > 100 | > 100 | > 100 | – | > 100 | > 100 | > 100 | > 100 | > 100 | > 100 | – | – | > 100 | > 100 | > 100 | – |
| COc1ccccc1-c1cc(=O)c2cc3c(cc2[nH]1)OCO3 | > 100 | > 100 | > 100 | – | > 100 | > 100 | > 100 | – | 62.4 | > 100 | > 100 | – | – | > 100 | – | – | – | – | – | 64.5 |
| CC(C)=CCC/C(C)=C/CC/C(C)=C/CC/C(C)=C/CC/C(C)=C/CC/C(C)=C/CC/C(C)=C/CC/C(C)=C/CC/C(C)=C/CO | > 100 | > 100 | > 100 | > 100 | > 100 | > 100 | > 100 | > 100 | > 100 | > 100 | > 100 | > 100 | > 100 | > 100 | – | – | > 100 | – | > 100 | – |
| C/C(CC(O)(/C=N/O)c1ccccc1)=N/O (centres undefined) | > 100 | > 100 | – | > 100 | – | – | > 100 | – | – | > 100 | > 100 | > 100 | > 100 | > 100 | – | – | > 100 | > 100 | > 100 | – |
| CC(C)N=C(N)NC#N | > 100 | – | > 100 | > 100 | > 100 | > 100 | > 100 | – | > 100 | > 100 | > 100 | > 100 | > 100 | > 100 | – | – | – | – | – | – |
| CCOC(=O)C1=CCOc2cc(N(C)C)ccc21 | > 100 | > 100 | > 100 | > 100 | > 100 | > 100 | > 100 | – | > 100 | > 100 | > 100 | > 100 | > 100 | – | – | – | > 100 | > 100 | > 100 | – |
| COC(O)C(=O)c1ccc2c(c1)CC1(C2)Cc2cc3c(cc2C1=O)CCC3 (centres undefined) | – | 29.4 | 37.5 | 31.9 | – | 34 | 34.5 | – | 37.1 | 43.3 | 45.7 | 35.9 | 35.7 | 64 | – | – | 35.3 | > 100 | 31.8 | – |
| O=C(Nc1ccc2[nH]c(C(=O)N3CC(CCl)c4c3cc([N+](=O)[O-])c3ccccc43)cc2c1)Nc1ccc2[nH]c(C(=O)N3CC(CCl)c4c3cc([N+](=O)[O-])c3ccccc43)cc2c1 (centres undefined) | – | > 100 | > 100 | > 100 | – | > 100 | > 100 | > 100 | > 100 | > 100 | > 100 | > 100 | > 100 | – | – | – | > 100 | > 100 | > 100 | – |
| Cc1c(N2CCN(C)CC2)nc2ccc(Cl)cc2c1-c1ccccc1 | 31.8 | 28.8 | 36.5 | > 100 | 34.5 | 30.3 | 66.2 | – | 25.3 | > 100 | 34.1 | 34.9 | 38.6 | > 10 | – | – | – | – | – | – |
| CCOc1ccc(N/C(=C(/C(Cl)=C(/Cl)N2CCCCC2)[N+](=O)[O-])n2nnc3ccccc32)cc1 | – | 29.9 | 50.6 | 82 | – | 31.6 | 44 | 42 | 34.9 | 37.4 | 36.9 | 38.2 | 22 | > 100 | – | – | 32.3 | 43.5 | 34.6 | – |
| O=[N+]([O-])C(=C(N1CCOCC1)N1CCOCC1)/C(Cl)=C(\Cl)Br | 64 | – | 33.2 | – | 16.9 | – | > 100 | 31 | > 100 | 81.3 | 37.9 | 28.3 | 6.71 | 33.9 | – | – | – | 52.9 | 28.8 | – |
| CC(C)NC(=O)N(Nc1ccccc1)C(C)(C)C | > 100 | > 100 | > 100 | > 100 | > 100 | > 100 | > 100 | > 100 | > 100 | – | > 100 | > 100 | – | > 100 | – | – | – | > 100 | > 100 | – |
| CC1=C(c2ccccc2)NC(=S)C(C)C(c2ccccc2)=N1 (centres undefined) | > 100 | 82.9 | > 100 | > 100 | 35.1 | > 100 | > 100 | – | > 100 | > 100 | > 100 | – | – | 54.1 | – | – | 69.3 | > 100 | > 100 | – |
| Nc1nc2ncc(CNc3ccc(C(=O)NC(CCC(=O)O)C(=O)O)cc3)nc2c(=O)[nH]1 (centres undefined) | > 100 | > 100 | > 100 | – | – | > 100 | > 100 | – | – | > 100 | > 100 | > 100 | > 100 | > 100 | – | – | > 100 | > 100 | > 100 | – |
| S=C1CCSc2c(ccc3ccccc23)N1 | > 100 | > 100 | > 100 | > 100 | > 100 | > 100 | > 100 | – | – | > 100 | > 100 | > 100 | > 100 | > 100 | – | – | > 100 | > 100 | > 100 | – |
| Cc1c2c(c(O)c3c(O)cccc13)C(=O)C1(O)C(O)=C(C(=O)NCNc3ccc(C(N)=O)cn3)C(=O)C(N(C)C)C1C2 (centres undefined) | 35.5 | 11.2 | 9.22 | 8.78 | – | 9.59 | – | 6.92 | 9.33 | 79.7 | > 100 | > 100 | – | 9.41 | – | – | 27.1 | > 100 | 15.5 | – |
| CSc1nc(NC2OC(COC(C)=O)C(OC(C)=O)C(OC(C)=O)C2OC(C)=O)c2c(n1)OCC2=O (centres undefined) | > 100 | > 100 | > 100 | > 100 | > 100 | > 100 | > 100 | > 100 | > 100 | > 100 | – | > 100 | > 100 | > 100 | – | – | – | – | – | – |
| O=C1C(=O)N(c2cccc(C(F)(F)F)c2)C(=S)N1c1ccccc1 | > 100 | 32 | > 100 | 70.4 | 84.5 | 31.3 | > 100 | 50.7 | 59.5 | > 100 | > 100 | – | 28 | > 100 | – | – | 82.4 | > 100 | – | – |
| CN1C(=O)C2(C=CC(O)CC2)c2ccccc21 (centres undefined) | > 100 | > 100 | > 100 | > 100 | > 100 | > 100 | > 100 | > 100 | > 100 | > 100 | > 100 | > 100 | > 100 | > 100 | – | – | > 100 | > 100 | – | – |
| CC(=O)Nc1ccc2c3c(cc(O)c2c1)N(C(=O)CCCCCCC(=O)N1CC(CCl)c2c1cc(O)c1cc(NC(C)=O)ccc21)CC3CCl (centres undefined) | 0.346 | < 0.0109 | < 0.01 | 12.4 | – | 0.013 | 0.913 | – | < 0.01 | 0.464 | 0.475 | 0.0177 | 0.0695 | – | – | – | 0.0604 | > 74.6 | 0.0914 | – |
| CCOC(=O)C1c2[nH]c3ccccc3c2CCN1C(=O)c1ccc(OC)o1 (centres undefined) | > 10 | > 10 | > 10 | > 10 | > 10 | – | > 10 | > 10 | > 10 | > 10 | > 10 | > 10 | > 10 | > 10 | – | – | > 10 | > 10 | – | – |
| CC1=C(O)C(=O)C2C(=O)C1C1Cc3ccccc3C21 (centres undefined) | > 100 | > 100 | > 100 | > 100 | > 100 | > 100 | > 100 | > 100 | > 100 | > 100 | > 100 | > 100 | > 100 | > 100 | – | – | – | – | – | – |
